Test results from publication PMC4466507, “Seneca Valley Virus 3C^pro Substrate Optimization Yields Efficient Substrates for Use in Peptide-Prodrug Therapy” (PLoS ONE, 2015).
“And” between values parts separate entries of the source, which are not always exact repeats. Identical values can stand only once.

What was measured:
[1] = biological target: T1, SVV-001 3C^pro produced during SVV-001 infection of NCI-H446 cells (Seneca Valley virus, UniProt Q155Z9); assay: Fluorescently quenched peptide cellular assay (SVV-001 infected NCI-H446 cells); format: cell-based, Seneca Valley Virus (SVV-001); details: FQ peptide 3 μM; for cleavage (increase in fluorescence) with SVV-001 infected cells / cleavage (increase in fluorescence) with uninfected cells: 3 hours at 37°C
T1 construct: 3C^pro released during a lytic viral infection is the sole source of the 3C^pro; endogenous in cells; host or cells: NCI-H446 (human SCLC) cells infected with wild-type SVV-001 for 8 h
Method: (§1) All SVV-001 stocks were cultured and purified as described previously and virus titers were determined by tissue culture infective dose (TCID50). The SCLC cell line, NCI-H446 (ATCC) was cultured in RPMI 1640 media (Quality Biological) supplemented with 10% fetal bovine serum (HyClone). The cell line NCI-H446 is routinely tested and authenticated by short tandem repeat (STR) analysis by DDC Medical and was last authenticated six months before submission.
A similar cellular assay was performed as described in the previous paragraph with the exception of using the CPQ2/5-FAM L/VP4.1 and NHL fluorogenic peptides described earlier. After an 8 hour infection with SVV-001, NCI-H446 cells were removed from the cell culture dish using phenol-red free RPMI 1640 media supplemented with 0.1% ethylenediaminetetraacetic acid (EDTA, Sigma) to aid in gentle cell detachment, and pelleted via centrifugation. Pellets were resuspended in phenol-red free RPMI 1640 prior to plating in black opaque 96 well plates as above. CPQ2/5-FAM peptides, L/VP4.1 or NHL were added at a final concentration of 3 μM to plated cells and incubated for 3 hours at 37°C. Fluorescence emissions at 520 nm, corresponding to the liberated 5-FAM fluorophore peptide cleavage product was followed after excitation at 490 nm by a Synergy Neo multimode plate reader (Biotek) every 60 s. The experiment was performed in triplicate in a 96 well flat bottom black opaque plate and average fluorescence units were used to observe changes in fluorescence. Standard curves of 5-FAM fluorescence vs. concentration were generated to convert the relative fluorescence units to moles of cleaved product generated during the reaction. Initial rates of hydrolysis were calculated from data during the first 10 minutes of the reaction and averaged from 3–4 separate experiments. Uncertainty is expressed by standard deviation and shown with error bars.

Plasma stability assay = format: in vitro ADME; details: pooled, 50% plasma/water, peptide 20 μM, 1 hour at 37°C; for change in fluorescence relative to plasma alone: human plasma, fluorescence read-out (ex 490 nm/em 520 nm) every 60 s, triplicate
Method: Human plasma was obtained from pooled discarded clinical samples less than 6 hrs old. Human plasma was isolated from whole blood by centrifugation, pooled, and diluted 1:1 with distilled H2O (Gibco). The L/VP4.1 and NHL fluorogenic peptides (20 μM) were incubated with plasma for 1 h at 37°C. Fluorescence emissions were obtained as described above by a DTX 880 multimode detector ([…]) every 60 s. Experiments were performed in triplicate in a 96 well flat bottom black opaque plate and the average fluorescence units were used to observe changes in fluorescence. Uncertainty is expressed by standard deviation.

[2] = biological target: T1, SVV-001 3C^pro produced during SVV-001 infection of NCI-H446 cells; assay: FRET substrate cellular assay (SVV-001 infected NCI-H446 cells); format: cell-based, Seneca Valley Virus (SVV-001); details: FP substrate 200 nM, NCI-H446 cells after 8 h SVV-001 infection, 3 h at 37°C
Method: as §1
Cells (1.6 × 10^7) were plated on a 150 mm cell culture dish (Corning) and allowed to recover overnight at 37°C. Each plate was inoculated with SVV-001 at the TCID50 and infected cells were incubated at 37°C for 8 h. After aspiration of the media, cells were mechanically lifted from the plate in phenol-red free RPMI 1640 media (Gibco) and pelleted by centrifugation. […] During the substrate incubation the change in FRET was measured with a Tecan Safire fluorimeter as described above. Conversion of the L/VP4.1 substrate to cleaved substrate was calculated by dividing the change in the FRET ratio at each time point by the total change in the FRET ratio corresponding to complete cleavage of the substrate. The conversion of the NHL substrate was similarly determined by dividing the change in the FRET ratio of the NHL at each time point by the total change in the FRET ratio of the L/VP4.1 substrate corresponding to complete cleavage. […]

SVV-001 3C^pro = biological target: T2, SVV-001 3C^pro (Seneca Valley virus, UniProt Q155Z9); assay: FRET substrate cleavage assay with purified recombinant SVV-001 3C^pro; format: biochemical, Seneca Valley Virus (SVV-001); details: for kcat/KM: CyPet/YPet FRET fusion protein substrate 200 nM, PBS pH 7.4, 30°C, average of 5–7 experiments, uncertainty SD, N/A where no cleavage was measurable; for kcat/KM / cleavage by SVV-001 3C^pro (result in words): 3 h; for Relative to WT: kcat/KM relative to endogenous L/VP4 FRET substrate; for cleavage by SVV-001 3C^pro (result in words): FRET fusion protein substrate 200 nM, 30°C
T2 construct: made in house; host or cells: E. coli BL21 AI
Method: (§2) Reactions were performed in PBS, pH 7.4 and 200 nM FRET substrate in a total volume of 100 μL. Substrates were incubated with 250 nM SVV-001 3C^pro at 30°C for 3 h. Human rhinovirus (HRV) control substrate was incubated with recombinant HRV 3C^pro under the same conditions. Fluorescence emissions at 475 nm and 527 nm, corresponding to CyPet and YPet respectively, were followed after excitation at 433 nm every 180 s by a Safire fluorimeter (Tecan). All experiments were performed in triplicate. FRET ratios (YPet fluorescence/CyPet fluorescence) were calculated at each timepoint. Conversion of each substrate to cleaved substrate was calculated by dividing the change in the FRET ratio at each timepoint by the total change in the FRET ratio corresponding to complete cleavage of the substrate. Using the equation from Boulware et al., conversion data was plotted vs. time (s) and fit with the equation: […] where [E] is the 3C^pro concentration (M) and t is time (s). The second order rate constant (k cat/K M) was determined by the curve fit using GraphPad Prism software. Reported values are the average k cat/K M values of 5–7 experiments. Uncertainty is expressed by standard deviation. Error bars on data points were removed for figure clarity.

HRV 3C^pro = biological target: T3, HRV 3C^pro (Human rhinovirus 14, UniProt P03303); assay: FRET substrate cleavage assay with recombinant HRV 3C^pro; format: biochemical
T3 construct: Recombinant HRV 3C Protease was purchased from Sigma; purchased Sigma
Method: as §2
Supplementary file pone.0129103.s004.tif: S4 Fig Comparison of SVV 3C^pro- L/VP4.1 Substrate Specificity to Selected Picornavirus Protease-Substrate Pairs. A. Substrates L/VP4.1 (labeled SVV), HRV, and Coxsackievirus (CAV) 2C/3A substrate (labeled CAV) with amino acid sequence MEALFQ↓GP were incubated with 250 nM SVV 3C^pro (black data points), HRV 3C^pro (blue data points), or CAV 3C^pro (red data points) for 3 hours at 30°C. CAV 3C^pro was cloned, overexpressed, and purified using the same methods described for SVV 3C^pro in the Methods section. The decrease in FRET was measured in real time using a fluorimeter and data was converted to display fraction of substrate converted to hydrolyzed substrate over time. Data points represent the average of three replicates at each time point. […]

CAV 3C^pro = assay: FRET substrate cleavage assay with CAV 3C^pro; format: biochemical, Coxsackie A virus (CAV); details: 250 nM CAV 3C^pro, 3 hours at 30°C
Method: Supplementary file pone.0129103.s004.tif: S4 Fig Comparison of SVV 3C^pro- L/VP4.1 Substrate Specificity to Selected Picornavirus Protease-Substrate Pairs. A. Substrates L/VP4.1 (labeled SVV), HRV, and Coxsackievirus (CAV) 2C/3A substrate (labeled CAV) with amino acid sequence MEALFQ↓GP were incubated with 250 nM SVV 3C^pro (black data points), HRV 3C^pro (blue data points), or CAV 3C^pro (red data points) for 3 hours at 30°C. CAV 3C^pro was cloned, overexpressed, and purified using the same methods described for SVV 3C^pro in the Methods section. The decrease in FRET was measured in real time using a fluorimeter and data was converted to display fraction of substrate converted to hydrolyzed substrate over time. Data points represent the average of three replicates at each time point. B. Heat map depicting relative rates of cleavage for protease-substrate pairs compared to the native protease-substrate pair. (TIF) Click here for additional data file.

[3] = NCI-H446 cells after 8 hour SVV-001 infection
[4] = FRET fusion protein substrate, 250 nM SVV-001 3C^pro

T2 sequence (Q155Z9 1509-1719): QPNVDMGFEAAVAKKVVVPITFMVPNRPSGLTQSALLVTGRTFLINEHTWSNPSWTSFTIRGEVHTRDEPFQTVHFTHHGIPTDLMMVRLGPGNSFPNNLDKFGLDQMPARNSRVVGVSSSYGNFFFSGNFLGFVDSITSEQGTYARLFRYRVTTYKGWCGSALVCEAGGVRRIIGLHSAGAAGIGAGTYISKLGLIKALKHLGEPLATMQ
T1 sequence (Q155Z9 1508-1719): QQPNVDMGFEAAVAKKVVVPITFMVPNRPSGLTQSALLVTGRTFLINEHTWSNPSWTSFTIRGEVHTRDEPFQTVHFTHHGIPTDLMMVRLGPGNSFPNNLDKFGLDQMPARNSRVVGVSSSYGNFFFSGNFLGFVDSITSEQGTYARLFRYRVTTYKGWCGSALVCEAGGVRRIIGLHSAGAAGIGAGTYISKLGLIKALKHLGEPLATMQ
T3 sequence (P03303 1538-1719): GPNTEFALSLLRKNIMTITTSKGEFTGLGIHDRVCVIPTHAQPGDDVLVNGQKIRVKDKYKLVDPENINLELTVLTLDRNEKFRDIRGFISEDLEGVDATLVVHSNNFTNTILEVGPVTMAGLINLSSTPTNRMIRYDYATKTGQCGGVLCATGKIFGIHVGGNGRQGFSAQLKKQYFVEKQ

Substance: CPQ2-GGSGGS-K(5FAM)-KK-NH2 [NHL FQ peptide, non-hydrolysable linker peptide CPQ2-GGSGGS-K(5FAM)-KK-NH2, negative control, reference compound]
- cleavage (increase in fluorescence) with SVV-001 infected cells [1, 3]: not cleaved
- cleavage (increase in fluorescence) with uninfected cells ([1]; uninfected NCI-H446 cells): not cleaved

Substance: CPQ2-IVYELQGP-K(5FAM)-KK-NH2 [L/VP4.1 FQ peptide]
- initial rate of reaction, SVV infected cells ([1]; NCI-H446 cells after 8 hour SVV-001 infection, 37°C, first 10 minutes, averaged from 3–4 experiments, SD): 0.446 ± 0.0056 pmol/s
- cleavage (increase in fluorescence) with SVV-001 infected cells [1, 3]: significant increase in fluorescence
- initial rate of reaction, uninfected cells ([1]; uninfected NCI-H446 cells, 37°C, first 10 minutes, averaged from 3–4 experiments, SD): 0.168 ± 0.0025 pmol/s
- cleavage (increase in fluorescence) with uninfected cells ([1]; uninfected NCI-H446 cells): did not show an appreciable increase in fluorescence
- change in fluorescence relative to plasma alone (Plasma stability assay): no significant change in fluorescence
- stability in human plasma (conclusion) (Plasma stability assay; fluorescence read-out): stable

Substance: GGSGGS [NHL, non-hydrolysable linker FP substrate (GGSGGS), negative control, reference compound]
- loss of FRET (cleavage) with SVV-001 infected cells [2]: did not show a loss of FRET
- change in fluorescence relative to plasma alone (Plasma stability assay): no significant change in fluorescence

Substance: IVFELQGP [L/VP4.3, L/VP4.1 FRET substrate with P4 Y→F substitution]
- kcat/KM (SVV-001 3C^pro; 250 nM SVV-001 3C^pro): 12160 M⁻¹ s⁻¹
- cleavage less efficient than the L/VP4.1 Pro variant (SVV-001 3C^pro; [4]): 30%
- Relative to WT (SVV-001 3C^pro): 6.3

Substance: IVMELQGP [L/VP4.4, L/VP4.1 FRET substrate with P4 Y→M substitution]
- kcat/KM (SVV-001 3C^pro; 250 nM SVV-001 3C^pro): 10344 M⁻¹ s⁻¹
- cleavage less efficient than the L/VP4.1 Pro variant (SVV-001 3C^pro; [4]): 40%
- Relative to WT (SVV-001 3C^pro): 5.3

Substance: IVYELQGN [L/VP4, endogenous SVV-001 3C^pro cleavage site IVYELQGN cloned between CyPet and YPet as FRET fusion protein substrate]
- kcat/KM (SVV-001 3C^pro; 250 nM SVV-001 3C^pro): 1932 ± 183 M⁻¹ s⁻¹ and 1932 M⁻¹ s⁻¹
- cleavage by SVV-001 3C^pro (result in words) (SVV-001 3C^pro; 250 nM SVV-001 3C^pro): efficiently cleaved

Substance: IVYELQGP [L/VP4.1, L/VP4 with Q↓GP (P2’ N→P substitution), FRET fusion protein substrate]
- kcat/KM (SVV-001 3C^pro; 250 nM SVV-001 3C^pro): 17446 ± 2203 M⁻¹ s⁻¹ and 17446 M⁻¹ s⁻¹
- increase of kcat/KM relative to L/VP4 (SVV-001 3C^pro; [4]): approximately 9 fold
- Relative to WT (SVV-001 3C^pro): 9.0
- turnover by non-native 3C protease (HRV 3C^pro) (HRV 3C^pro; FRET substrate, 250 nM HRV 3C^pro, 3 hours at 30°C): no turnover
- loss of FRET (cleavage) with SVV-001 infected cells [2]: Loss of FRET
- turnover by non-native 3C protease (CAV 3C^pro) (CAV 3C^pro): no turnover

Substance: IVYELQ↓SP [L/VP4.9, P1’ GN→SP substituted form of L/VP4 (IVYELQ↓SP) cloned between CyPET and YPET]
- cleavage by SVV-001 3C^pro (result in words) (SVV-001 3C^pro; 250 nM SVV-001 3C^pro): increased turnover efficiency over L/VP4, but was inferior to L/VP4.1

Substance: IVYEPQGP [L/VP4.2, L/VP4.1 FRET substrate with P2 L→P substitution]
- cleavage by SVV-001 3C^pro (result in words) (SVV-001 3C^pro; 250 nM SVV-001 3C^pro): not efficiently cleaved in 3 hours

Substance: KLFKMQGP [2B/2C, endogenous SVV-001 cleavage site KLFKMQGP cloned between CyPet and YPet as FRET fusion protein substrate]
- kcat/KM (SVV-001 3C^pro; 250 nM SVV-001 3C^pro): 1204 ± 146 M⁻¹ s⁻¹ and 1204 M⁻¹ s⁻¹
- cleavage by SVV-001 3C^pro (result in words) (SVV-001 3C^pro; 250 nM SVV-001 3C^pro): efficiently cleaved

Substance: LEVLFQGP [HRV, optimized human rhinovirus 3C^pro FP substrate (LEVLFQGP), positive control]
- kcat/KM (HRV 3C^pro; CyPet/YPet FRET fusion protein substrate 200 nM, recombinant HRV 3C^pro, PBS pH 7.4, 30°C, 3 h, average of 5–7 experiments, uncertainty SD): 5079 ± 528 M⁻¹ s⁻¹ and 5079 M⁻¹ s⁻¹
- kcat/KM higher than either SVV FP substrate (L/VP4, 2B/2C) (HRV 3C^pro; HRV FP substrate with HRV 3C^pro versus SVV FP substrates with SVV-001 3C^pro): 3-4 fold

Substance: VYELQGP [L/VP4.5, P6 truncation of L/VP4.1 FRET substrate]
- kcat/KM (SVV-001 3C^pro; 250 nM SVV-001 3C^pro): 9839 M⁻¹ s⁻¹
- decrease of turnover efficiency of cleavage from L/VP4.1 (SVV-001 3C^pro; [4]): ~2 fold
- Relative to WT (SVV-001 3C^pro): 5.1

Substance: YELQGP [L/VP4.6, P5/P6 truncation of L/VP4.1 FRET substrate]
- kcat/KM (SVV-001 3C^pro; 250 nM SVV-001 3C^pro): 1939 M⁻¹ s⁻¹
- Relative to WT (SVV-001 3C^pro): 1.0
